Source: paper PMC6688997 (Nature Communications, 2019)

Experiments:
[1] = tested on: Ba/F3 TPM3-NTRK1 G595R cells; assay: CellTiter-Glo cell viability assay; type: cell-based, murine
KM12 cells (TPM3-NTRK1) = assay: CellTiter-Glo cell viability assay; type: cell-based; conditions: Homo sapiens, KM12, 72 h
Protocol: All media were supplemented with 100 U/ml penicillin, and 100 µg/ml streptomycin. All cells were routinely tested and verified to be free of mycoplasma contamination. […] To assess cell viability after 72-h drug treatment, 2000–5000 cells were plated in replicates of three to six in 96-well plates. Following the drug treatments, the cells were incubated with CellTiter-Glo assay reagent (Promega, Madison, WI, USA) for 10 min. […] IC50 values were determined using a nonlinear regression model with a sigmoidal dose response in GraphPad.

[2] = tested on: EML4-ALK I1171T induced Ba/F3 cells; assay: CellTiter-Glo cell viability assay; type: cell-based, murine; conditions: Mus musculus, BaF3, 72 h; read-out: IC50
NuaK1 = NuaK1 (Homo sapiens, UniProt O60285); assay: Kinase assay, ATP Km; type: biochemical
IRR = target: T1, IRR (Homo sapiens, UniProt P14616); assay: Kinase assay, ATP Km; type: biochemical
T1 construct: purchased Carna Biosciences

AurB = AurB (Homo sapiens, UniProt Q96GD4); assay: Kinase assay, ATP Km; type: biochemical
MER = target: T2, MER (Homo sapiens, UniProt Q12866); assay: Kinase assay, ATP Km; type: biochemical
T2 construct: purchased Carna Biosciences

MAP4K2 = target: T3, MAP4K2 (Homo sapiens, UniProt Q12851); assay: Kinase assay, ATP Km; type: biochemical
T3 construct: purchased Carna Biosciences

LYNa = LYNa (Homo sapiens, UniProt P07948); assay: Kinase assay, ATP Km; type: biochemical
HCK = HCK (Homo sapiens, UniProt P08631); assay: Kinase assay, ATP Km; type: biochemical
EPHA4 = target: T4, EPHA4 (Homo sapiens, UniProt P54764); assay: Kinase assay, ATP Km; type: biochemical
T4 construct: purchased Carna Biosciences

TYK2 = TYK2 (Homo sapiens, UniProt P29597); assay: Kinase assay, ATP Km; type: biochemical
PKCη = target: T5, PKCη (Homo sapiens, UniProt P24723); assay: Kinase assay, ATP Km; type: biochemical
T5 construct: purchased Carna Biosciences

TYRO3 = target: T6, TYRO3 (Homo sapiens, UniProt Q06418); assay: Kinase assay, ATP Km; type: biochemical
T6 construct: purchased Carna Biosciences

RSK2 = RSK2 (Homo sapiens, UniProt P51812); assay: Kinase assay, ATP Km; type: biochemical
MSSK1 = target: T7, MSSK1 (Homo sapiens, UniProt Q9UPE1); assay: Kinase assay, ATP Km; type: biochemical
T7 construct: purchased Carna Biosciences

NEK1 = target: T8, NEK1 (Homo sapiens, UniProt Q96PY6); assay: Kinase assay, ATP Km; type: biochemical
T8 construct: purchased Carna Biosciences

FLT4 = target: T9, FLT4 (Homo sapiens, UniProt P35916); assay: Kinase assay, ATP Km; type: biochemical
T9 construct: purchased Carna Biosciences

DYRK1A = DYRK1A (Homo sapiens, UniProt Q13627); assay: Kinase assay, ATP Km; type: biochemical
AMPKα1/β1/γ1 = AMPKα1/β1/γ1 (Homo sapiens, UniProt Q13131); assay: Kinase assay, ATP Km; type: biochemical
AurA/TPX2 = AurA/TPX2 (Homo sapiens, UniProt O14965); assay: Kinase assay, ATP Km; type: biochemical
MSK2 = target: T10, MSK2 (Homo sapiens, UniProt O75676); assay: Kinase assay, ATP Km; type: biochemical
T10 construct: purchased Carna Biosciences

SGK3 = target: T11, SGK3 (Homo sapiens, UniProt Q96BR1); assay: Kinase assay, ATP Km; type: biochemical
T11 construct: purchased Carna Biosciences

AKT2 = AKT2 (Homo sapiens, UniProt P31751); assay: Kinase assay, ATP Km; type: biochemical
PLK3 = target: T12, PLK3 (Homo sapiens, UniProt Q9H4B4); assay: Kinase assay, ATP Km; type: biochemical
T12 construct: purchased Carna Biosciences

MINK = target: T13, MINK (Homo sapiens, UniProt Q8N4C8); assay: Kinase assay, ATP Km; type: biochemical
T13 construct: purchased Carna Biosciences

JNK1 = JNK1 (Homo sapiens, UniProt P45983); assay: Kinase assay, ATP Km; type: biochemical
WNK3 = target: T14, WNK3 (Homo sapiens, UniProt Q9BYP7); assay: Kinase assay, ATP Km; type: biochemical
T14 construct: purchased Carna Biosciences

JNK2 = JNK2 (Homo sapiens, UniProt P45984); assay: Kinase assay, ATP Km; type: biochemical
CGK2 = CGK2 (Homo sapiens, UniProt Q13237); assay: Kinase assay, ATP Km; type: biochemical
DDR2 = target: T15, DDR2 (Homo sapiens, UniProt Q16832); assay: Kinase assay, 1 mM ATP; type: biochemical
T15 sequence (Q16832 22-855): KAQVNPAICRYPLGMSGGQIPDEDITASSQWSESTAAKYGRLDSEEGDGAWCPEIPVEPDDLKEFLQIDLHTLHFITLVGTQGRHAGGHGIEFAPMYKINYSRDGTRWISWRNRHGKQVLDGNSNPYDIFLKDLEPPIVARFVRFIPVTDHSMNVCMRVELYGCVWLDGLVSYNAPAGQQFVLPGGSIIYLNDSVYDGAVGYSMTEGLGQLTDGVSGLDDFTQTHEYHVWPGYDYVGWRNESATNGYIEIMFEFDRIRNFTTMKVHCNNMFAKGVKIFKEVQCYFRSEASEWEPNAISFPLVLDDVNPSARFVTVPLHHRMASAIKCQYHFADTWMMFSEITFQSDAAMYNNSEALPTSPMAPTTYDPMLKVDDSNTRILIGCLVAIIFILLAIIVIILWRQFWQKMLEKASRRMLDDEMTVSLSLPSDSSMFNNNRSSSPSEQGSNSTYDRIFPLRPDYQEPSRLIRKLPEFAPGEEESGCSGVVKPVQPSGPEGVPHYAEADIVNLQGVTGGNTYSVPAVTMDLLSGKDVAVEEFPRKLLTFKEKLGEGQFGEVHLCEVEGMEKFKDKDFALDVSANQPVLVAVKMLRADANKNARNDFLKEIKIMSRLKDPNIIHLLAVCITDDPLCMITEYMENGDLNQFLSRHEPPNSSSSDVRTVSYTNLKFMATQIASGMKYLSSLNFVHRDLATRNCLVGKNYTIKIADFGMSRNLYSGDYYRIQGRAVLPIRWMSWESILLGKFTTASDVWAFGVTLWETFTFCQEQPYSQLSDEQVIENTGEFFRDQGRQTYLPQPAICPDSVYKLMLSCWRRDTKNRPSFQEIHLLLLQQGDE

FAK = FAK (Homo sapiens, UniProt Q05397); assay: Kinase assay, 1 mM ATP; type: biochemical

Chain of NuaK1 (O60285 whole entry): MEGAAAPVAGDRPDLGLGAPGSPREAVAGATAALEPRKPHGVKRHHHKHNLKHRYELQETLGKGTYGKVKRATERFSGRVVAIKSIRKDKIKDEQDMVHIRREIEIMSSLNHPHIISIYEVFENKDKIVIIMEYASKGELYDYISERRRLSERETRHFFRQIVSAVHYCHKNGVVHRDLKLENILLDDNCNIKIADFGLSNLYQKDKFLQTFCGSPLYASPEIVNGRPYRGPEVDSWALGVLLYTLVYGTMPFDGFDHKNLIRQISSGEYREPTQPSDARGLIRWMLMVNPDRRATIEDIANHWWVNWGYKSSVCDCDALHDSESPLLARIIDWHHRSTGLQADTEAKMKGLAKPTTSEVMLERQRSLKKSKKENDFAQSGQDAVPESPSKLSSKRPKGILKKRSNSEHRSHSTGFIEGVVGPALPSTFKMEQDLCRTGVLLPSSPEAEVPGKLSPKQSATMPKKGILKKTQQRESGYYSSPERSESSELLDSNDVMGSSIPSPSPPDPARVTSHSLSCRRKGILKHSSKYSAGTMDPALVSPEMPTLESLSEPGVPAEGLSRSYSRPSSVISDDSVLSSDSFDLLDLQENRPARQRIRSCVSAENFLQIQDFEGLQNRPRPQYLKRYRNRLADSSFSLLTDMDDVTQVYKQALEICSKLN
Chain of AMPKα1/β1/γ1 (Q13131 whole entry): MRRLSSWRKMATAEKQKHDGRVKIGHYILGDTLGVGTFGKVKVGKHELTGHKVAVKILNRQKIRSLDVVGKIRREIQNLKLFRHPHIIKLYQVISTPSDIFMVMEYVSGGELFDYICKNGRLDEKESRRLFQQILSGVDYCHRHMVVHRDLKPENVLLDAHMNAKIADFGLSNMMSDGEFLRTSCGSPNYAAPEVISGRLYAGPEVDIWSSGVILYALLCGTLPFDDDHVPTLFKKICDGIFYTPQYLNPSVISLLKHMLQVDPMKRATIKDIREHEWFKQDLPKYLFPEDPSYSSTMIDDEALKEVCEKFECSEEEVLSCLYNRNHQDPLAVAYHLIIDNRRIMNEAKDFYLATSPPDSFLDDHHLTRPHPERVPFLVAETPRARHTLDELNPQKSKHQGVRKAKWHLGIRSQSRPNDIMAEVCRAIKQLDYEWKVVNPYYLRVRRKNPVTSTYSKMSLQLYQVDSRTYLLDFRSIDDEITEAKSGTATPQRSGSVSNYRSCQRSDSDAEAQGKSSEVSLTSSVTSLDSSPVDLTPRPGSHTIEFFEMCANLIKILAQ
Chain of AMPKα1/β1/γ1 (Q9Y478 whole entry partner): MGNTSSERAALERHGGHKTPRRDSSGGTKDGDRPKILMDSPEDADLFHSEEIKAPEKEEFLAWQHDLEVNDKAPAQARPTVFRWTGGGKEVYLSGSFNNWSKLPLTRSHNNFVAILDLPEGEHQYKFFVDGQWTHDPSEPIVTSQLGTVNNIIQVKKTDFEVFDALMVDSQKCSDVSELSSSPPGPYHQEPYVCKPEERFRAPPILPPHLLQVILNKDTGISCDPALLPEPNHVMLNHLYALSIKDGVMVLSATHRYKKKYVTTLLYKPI
Chain of AMPKα1/β1/γ1 (P54619 whole entry partner): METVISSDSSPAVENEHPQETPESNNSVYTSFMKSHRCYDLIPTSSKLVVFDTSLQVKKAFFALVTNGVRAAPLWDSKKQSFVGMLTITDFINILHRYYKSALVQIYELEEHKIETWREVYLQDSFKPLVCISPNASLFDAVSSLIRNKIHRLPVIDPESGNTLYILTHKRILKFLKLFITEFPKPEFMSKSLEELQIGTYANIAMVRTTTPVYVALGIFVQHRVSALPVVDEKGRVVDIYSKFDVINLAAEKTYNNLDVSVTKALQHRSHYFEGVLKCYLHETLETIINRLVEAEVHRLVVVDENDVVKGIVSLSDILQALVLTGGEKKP
T10 sequence (O75676 whole entry): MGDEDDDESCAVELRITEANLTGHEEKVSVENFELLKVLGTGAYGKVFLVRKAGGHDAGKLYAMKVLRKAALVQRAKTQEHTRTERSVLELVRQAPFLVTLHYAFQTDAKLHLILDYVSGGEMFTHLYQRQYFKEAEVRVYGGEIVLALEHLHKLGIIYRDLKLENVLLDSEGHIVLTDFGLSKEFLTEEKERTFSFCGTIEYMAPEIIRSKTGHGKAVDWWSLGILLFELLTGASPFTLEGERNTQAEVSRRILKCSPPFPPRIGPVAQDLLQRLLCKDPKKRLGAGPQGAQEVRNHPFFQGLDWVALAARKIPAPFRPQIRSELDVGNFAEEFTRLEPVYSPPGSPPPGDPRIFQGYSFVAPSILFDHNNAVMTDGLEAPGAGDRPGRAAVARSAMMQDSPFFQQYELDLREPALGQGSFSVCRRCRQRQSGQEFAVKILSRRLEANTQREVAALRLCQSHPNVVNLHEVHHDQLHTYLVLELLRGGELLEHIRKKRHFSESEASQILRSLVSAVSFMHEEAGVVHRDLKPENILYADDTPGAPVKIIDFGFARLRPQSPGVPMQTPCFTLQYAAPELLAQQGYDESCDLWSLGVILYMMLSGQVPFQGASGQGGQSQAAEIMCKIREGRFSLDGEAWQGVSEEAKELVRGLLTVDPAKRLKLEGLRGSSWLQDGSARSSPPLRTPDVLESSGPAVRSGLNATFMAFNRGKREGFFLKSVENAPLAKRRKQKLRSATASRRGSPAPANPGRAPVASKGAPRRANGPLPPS
Chain of RSK2 (P51812 whole entry): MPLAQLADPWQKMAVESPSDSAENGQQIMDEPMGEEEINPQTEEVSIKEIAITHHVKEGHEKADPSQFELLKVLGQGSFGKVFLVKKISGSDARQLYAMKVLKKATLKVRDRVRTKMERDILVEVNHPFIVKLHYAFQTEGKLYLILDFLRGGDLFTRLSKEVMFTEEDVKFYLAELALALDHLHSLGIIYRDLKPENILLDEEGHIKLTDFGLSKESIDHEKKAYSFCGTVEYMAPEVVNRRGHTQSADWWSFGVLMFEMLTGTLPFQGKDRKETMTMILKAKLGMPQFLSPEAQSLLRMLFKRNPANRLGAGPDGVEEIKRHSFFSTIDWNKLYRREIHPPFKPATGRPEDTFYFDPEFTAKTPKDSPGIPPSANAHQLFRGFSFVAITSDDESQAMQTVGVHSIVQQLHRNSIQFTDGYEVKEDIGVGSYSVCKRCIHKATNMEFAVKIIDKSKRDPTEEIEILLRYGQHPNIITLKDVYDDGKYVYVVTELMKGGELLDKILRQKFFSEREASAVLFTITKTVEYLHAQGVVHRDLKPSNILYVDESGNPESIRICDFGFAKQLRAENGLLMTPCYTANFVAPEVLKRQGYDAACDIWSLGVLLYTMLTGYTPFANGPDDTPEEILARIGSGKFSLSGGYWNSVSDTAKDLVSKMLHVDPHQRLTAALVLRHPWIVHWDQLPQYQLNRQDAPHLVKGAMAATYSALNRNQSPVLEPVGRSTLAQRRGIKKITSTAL
Chain of HCK (P08631 whole entry): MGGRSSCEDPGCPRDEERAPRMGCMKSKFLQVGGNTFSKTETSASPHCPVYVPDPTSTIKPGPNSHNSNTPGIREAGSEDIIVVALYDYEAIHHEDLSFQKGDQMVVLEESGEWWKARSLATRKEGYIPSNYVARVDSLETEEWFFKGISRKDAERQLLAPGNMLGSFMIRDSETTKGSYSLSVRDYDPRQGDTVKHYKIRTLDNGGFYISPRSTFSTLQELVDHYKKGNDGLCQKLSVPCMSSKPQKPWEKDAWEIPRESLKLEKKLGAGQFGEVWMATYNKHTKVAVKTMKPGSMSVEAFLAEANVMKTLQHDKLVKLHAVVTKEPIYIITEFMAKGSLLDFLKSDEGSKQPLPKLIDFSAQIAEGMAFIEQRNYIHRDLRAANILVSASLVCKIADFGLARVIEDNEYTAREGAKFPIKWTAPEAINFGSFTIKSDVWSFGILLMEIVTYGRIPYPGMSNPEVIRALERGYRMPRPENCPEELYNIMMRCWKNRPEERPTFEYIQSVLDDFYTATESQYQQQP
Chain of TYK2 (P29597 whole entry): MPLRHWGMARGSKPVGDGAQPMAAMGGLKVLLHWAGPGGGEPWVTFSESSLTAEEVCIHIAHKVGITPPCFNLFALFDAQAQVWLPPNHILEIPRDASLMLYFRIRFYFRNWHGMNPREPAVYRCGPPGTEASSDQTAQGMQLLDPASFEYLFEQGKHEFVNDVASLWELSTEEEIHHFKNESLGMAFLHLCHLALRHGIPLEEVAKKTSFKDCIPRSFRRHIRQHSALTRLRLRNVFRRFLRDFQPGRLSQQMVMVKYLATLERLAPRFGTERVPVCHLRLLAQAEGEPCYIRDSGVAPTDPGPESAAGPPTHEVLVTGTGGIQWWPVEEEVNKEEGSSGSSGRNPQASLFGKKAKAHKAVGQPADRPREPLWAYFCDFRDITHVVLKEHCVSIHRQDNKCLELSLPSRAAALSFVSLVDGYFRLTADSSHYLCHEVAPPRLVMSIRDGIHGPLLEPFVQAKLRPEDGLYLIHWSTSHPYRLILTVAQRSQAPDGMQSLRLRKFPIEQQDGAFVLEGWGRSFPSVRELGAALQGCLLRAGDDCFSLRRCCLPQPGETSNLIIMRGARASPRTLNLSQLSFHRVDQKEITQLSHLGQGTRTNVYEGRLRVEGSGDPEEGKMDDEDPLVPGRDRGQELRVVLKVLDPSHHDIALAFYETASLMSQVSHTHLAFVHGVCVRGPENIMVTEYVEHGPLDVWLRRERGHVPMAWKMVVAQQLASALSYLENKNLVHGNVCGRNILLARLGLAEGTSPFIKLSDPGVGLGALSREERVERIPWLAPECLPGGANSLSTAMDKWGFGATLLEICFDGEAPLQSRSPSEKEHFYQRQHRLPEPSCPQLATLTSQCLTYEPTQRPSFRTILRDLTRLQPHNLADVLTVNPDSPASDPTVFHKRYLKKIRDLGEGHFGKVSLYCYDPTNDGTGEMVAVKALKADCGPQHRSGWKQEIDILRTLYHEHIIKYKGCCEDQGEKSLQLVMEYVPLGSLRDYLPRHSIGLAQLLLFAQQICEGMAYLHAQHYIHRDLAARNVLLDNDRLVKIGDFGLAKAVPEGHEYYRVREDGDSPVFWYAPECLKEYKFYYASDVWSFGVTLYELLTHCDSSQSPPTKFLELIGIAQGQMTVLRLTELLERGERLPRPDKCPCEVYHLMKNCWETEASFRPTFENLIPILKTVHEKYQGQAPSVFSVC

C[C@@H](N)COc1ccc(-c2cnc3ccc(N[C@H](C)c4cccc(F)c4)nn23)cc1.O=C(O)CCCCC(=O)O [DS-6051b]
IC50 ([1]; 72 h): < 100 nM | IC50 ([1]; Mus musculus, BaF3, 72 h): 85.6 nM | IC50 (KM12 cells (TPM3-NTRK1)): 3 to 20 nM | IC50 [2]: 459 nM | inhibition at 0.04 µM (NuaK1): 98.6% | % Inhibition (NuaK1; 0.04μM, ATP Km): potently inhibited | inhibition at 0.04 µM (IRR): 69.1% | inhibition at 0.04 µM (AurB): 63.8% | inhibition at 0.04 µM (MER): 48.7% | inhibition at 0.04 µM (MAP4K2): 47.8% | inhibition at 0.04 µM (LYNa): 46.3% | inhibition at 0.04 µM (HCK): 35.6% | inhibition at 0.04 µM (EPHA4): 32.9% | inhibition at 0.04 µM (TYK2): 29.3% | inhibition at 0.04 µM (PKCη): 22.2% | inhibition at 0.04 µM (TYRO3): 9.5% | inhibition at 0.04 µM (RSK2): 8.9% | inhibition at 0.04 µM (MSSK1): 8.8% | inhibition at 0.04 µM (NEK1): 7.2% | inhibition at 0.04 µM (FLT4): 6.9% | inhibition at 0.04 µM (DYRK1A): 6% | inhibition at 0.04 µM (AMPKα1/β1/γ1): 5% | inhibition at 0.04 µM (AurA/TPX2): 5% | inhibition at 0.04 µM (MSK2): 4.5% | inhibition at 0.04 µM (SGK3): 3.6% | inhibition at 0.04 µM (AKT2): 2.3% | inhibition at 0.04 µM (PLK3): 0.177% | inhibition at 0.04 µM (MINK): -0.0629% | inhibition at 0.04 µM (JNK1): -1.3% | inhibition at 0.04 µM (WNK3): -1.7% | inhibition at 0.04 µM (JNK2): -2.4% | inhibition at 0.04 µM (CGK2): -2.6% | inhibition at 0.2 µM (DDR2; 0.2μM, 1 mM ATP): 43.5% | IC50 (DDR2; ATP: 1 mM): 299 nM | inhibition at 0.2 µM (FAK): 25.1%
